Patent US20180028627A1, “TREATMENT VACCINE FOR PROSTATE CANCER” (Bioventures, LLC, priority 2015, published 2018)
Converted amounts (≈) assume the structure as drawn. Residues, ends and D or L forms follow the SMILES beside them.

How the values were obtained:
[1] = PSA peptide solubility testing (turbidity); conditions: for Solubility, peptides tested individually: pH 4 or pH 5 with succinate (10 mM) or glutamate (10 mM)
[2] = system: CD3 T-cells co-cultured with autologous LCs; test: T-cell proliferation induced by treated LCs, alamarBlue; assay type: cell-based, human

In the case of CC[C@H](C)[C@H](NC(=O)[C@H](Cc1c[nH]c2ccccc12)NC(=O)[C@@H](NC(=O)[C@@H](NC(=O)[C@H](CO)NC(=O)[C@H](CC(C)C)NC(=O)[C@@H](NC(=O)[C@H](CC(C)C)NC(=O)[C@H](Cc1ccccc1)NC(=O)[C@@H](NC(=O)[C@@H](NC(=O)[C@@H]1CCCN1C(=O)[C@@H](NC(=O)[C@H](Cc1c[nH]c2ccccc12)NC(=O)[C@H](CCSC)NC(C)=O)C(C)C)C(C)C)C(C)C)[C@@H](C)O)C(C)C)[C@@H](C)O)C(=O)NCC(=O)N[C@@H](C)C(=O)N[C@@H](C)C(=O)N1CCC[C@H]1C(=O)N[C@@H](CC(C)C)C(=O)N[C@H](C(=O)N[C@@H](CC(C)C)C(=O)N[C@@H](CO)C(=O)N[C@@H](CCCNC(=N)N)C(=O)N[C@H](C(=O)N[C@H](C(=O)NCC(=O)NCC(=O)N[C@@H](Cc1c[nH]c2ccccc12)C(=O)N[C@@H](CCC(=O)O)C(=O)N[C@@H](CS)C(=O)N[C@@H](CCC(=O)O)C(=O)N[C@@H](CCCCN)C(=O)N[C@@H](Cc1c[nH]cn1)C(=O)N[C@@H](CO)C(=O)N[C@@H](CCC(N)=O)C(=O)N1CCC[C@H]1C(=O)N[C@@H](Cc1c[nH]c2ccccc12)C(=O)N[C@@H](CCC(N)=O)C(=O)N[C@H](C(N)=O)C(C)C)C(C)C)[C@@H](C)CC)[C@@H](C)CC [PSA 1-40, MWVPVVFLTLSVTWIGAAPLILSRIVGGWECEKHSQPWQV] (Ac-MWVPVVFLTLSVTWIGAAPLILSRIVGGWECEKHSQPWQV-NH2; N-terminus and C-terminus assumed), the Solubility ([1]; after dilution from 20 mg/ml to 5 mg/ml, 10 mM succinate, pH5.0 with 5% glycine) is reported as “remained insoluble”, the Solubility ([1]; at 20 mg/ml in 10 mM succinate, pH5.0 with 5% glycine) is reported as “insoluble” and the Solubility ([1]; in the presence of other PSA peptides) is reported as “solubility was enhanced”. The “Solubility, peptides tested individually” value [1] was “All except PSA 1-40 were soluble in both buffers” and the Solubility ([1]; pH 5) was 5500 µg/mL (≈ 1200 µM).

With CSCC[C@H](NC(=O)[C@H](CC(=O)O)NC(=O)[C@H](Cc1ccc(O)cc1)NC(=O)[C@H](CC(C)C)NC(=O)[C@@H]1CCCN1C(=O)[C@H](Cc1c[nH]cn1)NC(=O)[C@@H]1CCCN1C(=O)[C@H](Cc1ccccc1)NC(=O)[C@H](CO)NC(=O)[C@H](Cc1c[nH]cn1)NC(=O)[C@H](CO)NC(=O)[C@@H](NC(=O)[C@H](CCC(N)=O)NC(=O)[C@H](Cc1ccccc1)NC(=O)[C@@H](NC(=O)[C@H](CCC(N)=O)NC(=O)CNC(=O)[C@@H](NC(=O)[C@H](CC(=O)O)NC(=O)[C@H](CCC(=O)O)NC(=O)[C@@H]1CCCN1C(=O)[C@H](Cc1c[nH]cn1)NC(=O)[C@H](Cc1ccccc1)NC(C)=O)[C@@H](C)O)C(C)C)C(C)C)C(=O)N[C@@H](CO)C(=O)N[C@@H](CC(C)C)C(=O)N[C@@H](CC(C)C)C(=O)N[C@@H](CCCCN)C(=O)N[C@@H](CC(N)=O)C(=O)N[C@@H](CCCNC(=N)N)C(=O)N[C@@H](Cc1ccccc1)C(=O)N[C@@H](CC(C)C)C(=O)N[C@@H](CCCNC(=N)N)C(=O)N1CCC[C@H]1C(=O)NCC(=O)N[C@@H](CC(=O)O)C(=O)N[C@@H](CC(=O)O)C(=O)N[C@@H](CO)C(=O)N[C@@H](CO)C(=O)N[C@@H](Cc1c[nH]cn1)C(=O)N[C@@H](CC(=O)O)C(N)=O [PSA 81-120, FHPEDTGQVFQVSHSFPHPLYDMSLLKNRFLRPGDDSSHD] (Ac-FHPEDTGQVFQVSHSFPHPLYDMSLLKNRFLRPGDDSSHD-NH2; N-terminus and C-terminus assumed) the “Solubility, peptides tested individually” value [1] was “soluble in both buffers”.

With CC[C@H](C)[C@H](NC(=O)[C@H](Cc1c[nH]c2ccccc12)NC(=O)[C@H](CCCCN)NC(=O)[C@H](CCCNC(=N)N)NC(=O)[C@H](Cc1ccc(O)cc1)NC(=O)[C@H](Cc1c[nH]cn1)NC(=O)[C@@H](NC(=O)[C@@H](NC(=O)[C@H](CCCCN)NC(=O)[C@@H](NC(=O)[C@H](Cc1ccc(O)cc1)NC(=O)[C@H](CC(C)C)NC(=O)[C@H](CO)NC(C)=O)[C@@H](C)O)C(C)C)C(C)C)C(=O)N[C@@H](CCCCN)C(=O)N[C@@H](CC(=O)O)C(=O)N[C@H](C(=O)N[C@H](C(=O)N[C@H](C(=O)N[C@@H](C)C(=O)N[C@@H](CC(N)=O)C(=O)N1CCC[C@H]1C(N)=O)C(C)C)[C@@H](C)CC)[C@@H](C)O [PSA 241-261, SLYTKVVHYR KWIKDTIVAN P] (Ac-SLYTKVVHYRKWIKDTIVANP-NH2; N-terminus and C-terminus assumed) the “Solubility, peptides tested individually” value [1] was “soluble in both buffers”.

In the case of CC[C@H](C)[C@H](NC(=O)[C@H](CS)NC(=O)[C@H](Cc1c[nH]cn1)NC(=O)[C@H](C)NC(=O)[C@H](C)NC(=O)[C@@H](NC(=O)[C@H](CC(C)C)NC(=O)[C@@H](NC(=O)[C@H](Cc1c[nH]c2ccccc12)NC(=O)[C@H](CCC(N)=O)NC(=O)[C@@H]1CCCN1C(=O)[C@H](Cc1c[nH]cn1)NC(=O)[C@@H](NC(=O)[C@H](CC(C)C)NC(=O)[C@@H](NC(=O)CNC(=O)CNC(=O)[C@H](CS)NC(=O)[C@@H](NC(=O)[C@H](C)NC(=O)[C@H](CCCNC(=N)N)NC(=O)CNC(=O)[C@H](CCCNC(=N)N)NC(=O)[C@H](CO)NC(=O)[C@H](C)NC(=O)[C@@H](NC(=O)[C@H](CC(C)C)NC(C)=O)C(C)C)C(C)C)C(C)C)C(C)C)C(C)C)[C@@H](C)O)C(=O)N[C@@H](CCCNC(=N)N)C(=O)N[C@@H](CC(N)=O)C(=O)N[C@@H](CCCCN)C(=O)N[C@@H](CO)C(=O)N[C@H](C(=O)N[C@H](C(=O)N[C@@H](CC(C)C)C(=O)N[C@@H](CC(C)C)C(=O)NCC(=O)N[C@@H](CCCNC(=N)N)C(=O)N[C@@H](Cc1c[nH]cn1)C(=O)N[C@@H](CO)C(=O)N[C@@H](CC(C)C)C(N)=O)[C@@H](C)CC)C(C)C [PSA 41-80, LVASRGRAVCGGVLVHPQWVLTAAHCIRNKSVILLGRHSL] (Ac-LVASRGRAVCGGVLVHPQWVLTAAHCIRNKSVILLGRHSL-NH2; N-terminus and C-terminus assumed), the “Solubility, peptides tested individually” value [1] is reported as “soluble in both buffers”.

With tetanus toxoid the T-cell proliferation ([2]; over media, 7 days co-culture of T cells with autologous LCs) was “no significant increase over media” and the “Measurable proliferation, increased fluorescence” value ([2]; subjects 2 and 5) was no less than 5000.
